Patent US8003649B2 (AstraZeneca AB, priority 2007, dated 2011)

Each compound was assayed against T1, Androgen Receptor (AR) (Homo sapiens, UniProt P10275, T878A) (assay: LNCaP Androgen Receptor Down-regulation Cell Assay (immunofluorescence end point)). Details: LNCaP prostate carcinoma cells, compound incubation 20-22 hours, 50% reduction of the AR signal; read-out: Androgen Receptor Down-regulation Assay (a) IC50/μM.
T1 construct: cell based immuno-fluorescence assay using the LNCaP prostate epithelial cell line; endogenous in cells; host or cells: LNCaP clone FGC (ATCC CRL-1740)
T1 sequence (P10275 1-920 T878A): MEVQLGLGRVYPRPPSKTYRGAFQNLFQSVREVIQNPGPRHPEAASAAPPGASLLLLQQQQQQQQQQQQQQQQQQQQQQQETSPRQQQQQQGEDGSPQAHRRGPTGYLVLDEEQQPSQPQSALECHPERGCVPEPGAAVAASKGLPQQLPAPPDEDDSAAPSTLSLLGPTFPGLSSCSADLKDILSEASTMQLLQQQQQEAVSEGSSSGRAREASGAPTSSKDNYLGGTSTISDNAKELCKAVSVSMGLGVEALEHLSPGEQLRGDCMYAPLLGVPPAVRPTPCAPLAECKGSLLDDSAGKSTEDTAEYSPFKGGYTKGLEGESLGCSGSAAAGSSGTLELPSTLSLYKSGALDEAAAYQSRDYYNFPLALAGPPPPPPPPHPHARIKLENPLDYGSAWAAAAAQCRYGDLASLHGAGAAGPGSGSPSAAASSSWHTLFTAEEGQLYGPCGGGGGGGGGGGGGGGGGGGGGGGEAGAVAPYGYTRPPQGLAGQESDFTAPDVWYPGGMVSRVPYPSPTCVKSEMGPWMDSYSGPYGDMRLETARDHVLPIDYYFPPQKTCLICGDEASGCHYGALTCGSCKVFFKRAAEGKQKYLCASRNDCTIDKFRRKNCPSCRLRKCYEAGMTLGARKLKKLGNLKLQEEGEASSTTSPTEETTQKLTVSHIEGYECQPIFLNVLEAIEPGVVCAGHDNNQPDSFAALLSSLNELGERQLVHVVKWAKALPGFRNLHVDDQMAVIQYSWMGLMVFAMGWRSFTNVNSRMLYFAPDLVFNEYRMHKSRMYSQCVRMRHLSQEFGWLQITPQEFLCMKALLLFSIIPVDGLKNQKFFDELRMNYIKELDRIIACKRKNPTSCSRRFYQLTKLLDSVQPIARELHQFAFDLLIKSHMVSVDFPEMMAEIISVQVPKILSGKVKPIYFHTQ
Format: cell-based
Experimental: The ability of compounds to reduce Androgen Receptor (AR) numbers was assessed in a cell based immuno-fluorescence assay using the LNCaP prostate epithelial cell line.
a) LNCaP Androgen Receptor Down-regulation Cell Assay
A 5 ml volume of Growth Medium was added to each flask (as above except that 5% (v/v) charcoal stripped FBS (HyClone Code no. SH30068.03) was included instead of 10% (v/v) FBS). Cells were syringed at least twice using a sterile 18G×1.5″ (1.2×40 mm) broad gauge needle and cell density was measured using a haemocytometer.
Test data reported herein was generated using two different compounds preparation and dosing methods. In method (1) a 10 mM compound stock solution in 100% (v/v) DMSO was serially diluted in 4-fold steps in 100% (v/v) DMSO using a Thermo Scientific Matrix SerialMate. The diluted compounds were then further diluted 1 in 30 in assay media using a Thermo Scientific Matrix PlateMate and a 10 μl aliquot of this dilution was dosed to cells manually using a multi-channel pipette. In method (2) starting with a 10 mM compound stock solution, the Labcyte Echo 550 was used to generate a compound concentration response set diluted in 30 μl of assay media. The Echo 550 is a liquid handler that uses acoustic technology to perform direct microplate-to-microplate transfers of DMSO compound solutions. The system can be programmed to transfer volumes as low as […] in multiple increments between microplates and in so doing generates a serial dilution of compound which is then back-filled to normalise the DMSO concentration across the dilution range. A 10 μl volume of diluted compound is then dosed to cells using a Thermo Scientific Matrix PlateMate.
Plates were incubated overnight at 37° C., 5% CO2. Wells were then dosed with compound prepared by one of the 2 methods above and further incubated for 20-22 hours at 37° C., 5% CO2. […] This fixative solution was removed and cells were washed with 250 μl of PBS/0.05% (v/v) Tween 20 (PBST) using an automated plate washer. This process was then repeated twice more.
Immunostaining was performed at room temperature. Cells were permeabilised by the addition of 35 μl of PBS containing 0.5% Tween 20 and incubated for 1 hour at room temperature. Permeabilisation solution was removed and cells were washed with 250 μl of PBST using an automated plate washer. This process was then repeated twice more. 35 μl of Blocking Solution (PBST containing 3% (w/v) Marvel dried skimmed milk (Nestle)) was added to each well and plates were incubated at room temperature for a minimum of 1 hour. […] Then this primary antibody solution was removed from the wells followed by 3×100 μl PBST washes using a plate washer. […] Henceforth, wherever possible, plates were protected from light exposure. The plates were incubated for 1 hour and then the secondary antibody solution was removed from the wells followed by 3×100 ul PBST washes using a plate washer. Then 50 μl of PBST was added to each well and plates were covered with a black plate seal and stored at 4° C. before being read. Plates were read within six hours of completing the immunostaining.
The Green Fluorescent AR-associated signal in each well was measured using an Acumen Explorer HTS Reader (TTP Labtech Ltd., Cambridge). […] The instrument is a laser-scanning fluorescence microplate cytometer which samples the well at regular intervals and uses threshold algorithms to identify all fluorescent intensities above the solution background without the need to generate and analyse an image. These fluorescent objects can be quantified and provide a measure of the AR levels in cells. Fluorescence dose response data obtained with each compound was exported into a suitable software package (such as Origin) to perform curve fitting analysis. Down-regulation of AR levels was expressed as an IC50 value.

Going from `FC(F)(F)c1nnc2ccc(N3CCN(Cc4cscn4)CC3)nn12` [Example 61, 6-[4-(1,3-thiazol-4-ylmethyl)piperazin-1-yl]-3-(trifluoromethyl)-[1,2,4]triazolo[4,3-b]pyridazine] to `FC(F)(F)c1nnc2ccc(N3CCN(Cc4cccs4)CC3)nn12` [Example 70, 6-[4-(thiophen-2-ylmethyl)piperazin-1-yl]-3-(trifluoromethyl)-[1,2,4]triazolo[4,3-b]pyridazine], the DC50 falls from 7.4 µM to 0.64 µM (12-fold).

`FC(F)(F)c1nnc2ccc(N3CCN(Cc4ccccc4Cl)CC3)nn12` [Example 62, 6-[4-[(2-chlorophenyl)methyl]piperazin-1-yl]-3-(trifluoromethyl)-[1,2,4]triazolo[4,3-b]pyridazine] and `Fc1ccccc1CN1CCN(c2ccc3nnc(C(F)(F)F)n3n2)CC1` [Example 72, 6-[4-[(2-fluorophenyl)methyl]piperazin-1-yl]-3-(trifluoromethyl)-[1,2,4]triazolo[4,3-b]pyridazine] are within 1.5-fold of each other in DC50: 0.72 µM for the first, 1 µM for the second.

`FC(F)(F)c1nnc2ccc(N3CCN(Cc4cccc5cc[nH]c45)CC3)nn12` [Example 63, 6-[4-(1H-indol-7-ylmethyl)piperazin-1-yl]-3-(trifluoromethyl)-[1,2,4]triazolo[4,3-b]pyridazine] and `FC(F)(F)c1nnc2ccc(N3CCN(Cc4ccc5[nH]ccc5c4)CC3)nn12` [Example 77, 6-[4-(1H-indol-5-ylmethyl)piperazin-1-yl]-3-(trifluoromethyl)-[1,2,4]triazolo[4,3-b]pyridazine] are within 1.5-fold of each other in DC50: 1.5 µM for the first, 1.4 µM for the second.

First: FC(F)(F)c1nnc2ccc(N3CCN(Cc4cnc5ccccc5c4)CC3)nn12 [Example 64, 3-[[4-[3-(trifluoromethyl)[1,2,4]triazolo[4,3-b]pyridazin-6-yl]piperazin-1-yl]methyl]quinoline]
Second: Cn1c(CN2CCN(c3ccc4nnc(C(F)(F)F)n4n3)CC2)cc2ccccc21 [Example 69, 6-[4-[(1-methylindol-2-yl)methyl]piperazin-1-yl]-3-(trifluoromethyl)-[1,2,4]triazolo[4,3-b]pyridazine]
The DC50 of the first is 1.8-fold higher: 2.5 µM for the first, 1.4 µM for the second.

First: FC(F)(F)c1nnc2ccc(N3CCN(Cc4cccc5cnccc45)CC3)nn12 [Example 65, 5-[[4-[3-(trifluoromethyl)-[1,2,4]triazolo[4,3-b]pyridazin-6-yl]piperazin-1-yl]methyl]isoquinoline]
Second: FC(F)(F)c1nnc2ccc(N3CCN(Cc4cccc5ccccc45)CC3)nn12 [Example 66, 6-[4-(naphthalen-1-ylmethyl)piperazin-1-yl]-3-(trifluoromethyl)-[1,2,4]triazolo[4,3-b]pyridazine]
The DC50 of the first is 2.3-fold higher: 0.76 µM for the first, 0.33 µM for the second.

First: FC(F)(F)c1ccccc1CN1CCN(c2ccc3nnc(C(F)(F)F)n3n2)CC1 [Example 67, 3-(trifluoromethyl)-6-[4-[[2-(trifluoromethyl)phenyl]methyl]piperazin-1-yl]-[1,2,4]triazolo[4,3-b]pyridazine]
Second: COc1ccccc1CN1CCN(c2ccc3nnc(C(F)(F)F)n3n2)CC1 [Example 75, 6-[4-[(2-methoxyphenyl)methyl]piperazin-1-yl]-3-(trifluoromethyl)-[1,2,4]triazolo[4,3-b]pyridazine]
The DC50 of the first is 2.3-fold lower: 1 µM for the first, 2.3 µM for the second.

Compared with `Cn1cc(CN2CCN(c3ccc4nnc(C(F)(F)F)n4n3)CC2)c2ccccc21` [Example 71, 6-[4-[(1-methylindol-3-yl)methyl]piperazin-1-yl]-3-(trifluoromethyl)-[1,2,4]triazolo[4,3-b]pyridazine], `Cn1cccc1CN1CCN(c2ccc3nnc(C(F)(F)F)n3n2)CC1` [Example 87, 6-[4-[(1-methylpyrrol-2-yl)methyl]piperazin-1-yl]-3-(trifluoromethyl)-[1,2,4]triazolo[4,3-b]pyridazine] is 3.7-fold higher in DC50: 1.4 µM for the first, 5.2 µM for the second.

Compared with `CS(=O)(=O)c1cccc(CN2CCN(c3ccc4nnc(C(F)(F)F)n4n3)CC2)c1` [Example 74, 6-[4-[(3-methylsulfonylphenyl)methyl]piperazin-1-yl]-3-(trifluoromethyl)-[1,2,4]triazolo[4,3-b]pyridazine], `COc1cccc(CN2CCN(c3ccc4nnc(C(F)(F)F)n4n3)CC2)c1` [Example 82, 6-[4-[(3-methoxyphenyl)methyl]piperazin-1-yl]-3-(trifluoromethyl)-[1,2,4]triazolo[4,3-b]pyridazine] is 3.5-fold lower in DC50: 5.6 µM for the first, 1.6 µM for the second.

First: FC(F)(F)c1nnc2ccc(N3CCN(Cc4cccc5c4OCCO5)CC3)nn12 [Example 76, 6-[4-(2,3-dihydro-1,4-benzodioxin-5-ylmethyl)piperazin-1-yl]-3-(trifluoromethyl)-[1,2,4]triazolo[4,3-b]pyridazine]
Second: FC(F)(F)c1nnc2ccc(N3CCN(Cc4ccc5c(c4)OCCO5)CC3)nn12 [Example 88, 6-[4-(2,3-dihydro-1,4-benzodioxin-6-ylmethyl)piperazin-1-yl]-3-(trifluoromethyl)-[1,2,4]triazolo[4,3-b]pyridazine]
The DC50 of the first is 1.5-fold higher: 2.3 µM for the first, 1.5 µM for the second.

`FC(F)(F)c1nnc2ccc(N3CCN(Cc4ccco4)CC3)nn12` [Example 79, 6-[4-(furan-2-ylmethyl)piperazin-1-yl]-3-(trifluoromethyl)-[1,2,4]triazolo[4,3-b]pyridazine] and `FC(F)(F)c1nnc2ccc(N3CCN(Cc4ccc[nH]4)CC3)nn12` [Example 83, 6-[4-(1H-pyrrol-2-ylmethyl)piperazin-1-yl]-3-(trifluoromethyl)-[1,2,4]triazolo[4,3-b]pyridazine] are within 1.5-fold of each other in DC50: 2.4 µM for the first, 2.5 µM for the second.

Going from `FC(F)(F)c1nnc2ccc(N3CCN(Cc4cccnc4)CC3)nn12` [Example 81, 6-[4-(pyridin-3-ylmethyl)piperazin-1-yl]-3-(trifluoromethyl)-[1,2,4]triazolo[4,3-b]pyridazine] to `FC(F)(F)c1nnc2ccc(N3CCN(Cc4ccc5c(c4)CCO5)CC3)nn12` [Example 84, 6-[4-(2,3-dihydro-1-benzofuran-5-ylmethyl)piperazin-1-yl]-3-(trifluoromethyl)-[1,2,4]triazolo[4,3-b]pyridazine], the DC50 falls from 7.2 µM to 1.8 µM (4-fold).

`FC(F)(F)c1nnc2ccc(N3CCN(Cc4ccc5c(c4)OCO5)CC3)nn12` [Example 85, 6-[4-(1,3-benzodioxol-5-ylmethyl)piperazin-1-yl]-3-(trifluoromethyl)-[1,2,4]triazolo[4,3-b]pyridazine] was tested, and the DC50 was 1.6 µM.
